Reference: patent US5916919A, “Retrovirus protease inhibitors” (priority 1997, dated 1999)
Values after ≈ are worked out from the molar mass of the structure shown. Like-named read-outs stand apart in the source and are kept apart here.

Tests used:
[1] = HIV positive, ARC and AIDS individuals; cited from earlier work
HIV-1 protease = molecular target: T1, HIV-1 protease (Human immunodeficiency virus type 1 group M subtype B, UniProt P04585); test: HPLC assay of proteolytic activity of recombinant HIV-1 protease (SQNYPIV substrate); format: biochemical; conditions: for Inhibition (inhibitory activity of compounds against HIV-1 protease) / inhibition at 17.9 µg/mL: 17.9 μg/ml, HPLC assay; for inhibition at 17.9 µg/mL: read-out: Inhibition (inhibitory activity of compounds against HIV-1 protease); for anti-HIV-1 protease activity (in words): 17.9 μg/ml (tested concentration)
T1 construct: Recombinant HIV-1 protease was prepared from the expression vector, PGEX-PR 107; made in house
Protocol: Recombinant HIV-1 protease was prepared from the expression vector, PGEX-PR 107, in E. coli DII5a and was purified according to the method established in Dr. Wan's laboratory.
The proteolytic activity of HIV-1 PR was measured by Dr. Wan's group at the Biochemistry Department using the synthetic heptapeptide Ser-Gln-Asn-Tyr-Pro-Ile-Val (SQNYPIV), corresponding to the p24-p17 cleavage site in the natural gag precursor, as substrate. The products of cleavage were analyzed by reversed-phase high-performance liquid chromatography (RP-HPLC, Ultrasphere ODS, 5μ, 4.6 mm×15 cm, Beckman, Calif., USA) with a 7-33% acetonitrile gradient in 0.1% trifluoroacetic acid (TFA). Product peak areas were integrated by a data system (Chromatopac C-R3A, Shimadzu, Japan) and compared with the standard peptide SQNY, which is expected to be generated from heptapeptide SQNYPIV after HIV-1 protease digestion. The extinction coefficient of the peptide SQNY was used to estimate the rate of proteolysis of the heptapeptide substrate. The assay was performed in a volume of 140 μl containing 90 pmole of substrate, 2 U of HIV-1 protease and compound solution in 0.1 M NaOAc buffer, pH 5.5, with 1 M (NH4)2 SO4, at 37° C. The reaction which proceeded for 2 h was terminated by the addition of 20 μl of aqueous 10% trifluoroacetic acid. The supernatant obtained by centrifuging at 12,000 rpm for 3 min was then analyzed by the hplc method. The unit of enzyme activity was defined as the amount of enzyme which yields 1 nmol of tetrapeptide SQNY under the above conditions in 1 min.
The proteolytic activity of HIV-1 protease inhibited by the compound was calculated as the activity of the control subtracting that of the sample, and then divided by itself.

HIV [2] = conditions: cited from earlier work
HIV [3] = conditions: cited from earlier work; remark: listed apart in the source
HIV [4] = conditions: cited from earlier work; remark: listed apart in the source
HSV = conditions: cited from earlier work
HIV [5] = conditions: MT-4 cells, cited from earlier work
HIV [6] = conditions: MT-4 cells; cited from earlier work
[7] = system: HIV-infected Molt-4 clone No. 8 cells; conditions: cited from earlier work
[8] = system: HIV-specific antigen expression; conditions: MT-4 cells; cited from earlier work

Compound: Cc1cn([C@H]2C[C@H](N=[N+]=[N-])[C@@H](CO)O2)c(=O)[nH]c1=O [AZT, 3'-azido-3'-deoxythymidine]
- toxicity [1]: frequently toxic, causing bone marrow suppression resulting in anemia leucopenia and thrombocytopenia

Compound: C[C@@H]1CC[C@]2(C(=O)O)CC[C@]3(C)C(=CC[C@@H]4[C@@]5(C)C[C@@H](O)C(=O)C(C)(C)[C@@H]5CC[C@]43C)[C@@H]2[C@]1(C)O [Compound 1, 2α,19α-Dihydroxy-3-oxo-12-ursen-28-oic acid]
- Inhibition (inhibitory activity of compounds against HIV-1 protease) (HIV-1 protease): 72.19%
- inhibition at 17.9 µg/mL (HIV-1 protease): 72%

Compound: C[C@H]1[C@H](C)CC[C@]2(C(=O)O)CC[C@]3(C)C(=CC[C@@H]4[C@@]5(C)CC[C@H](O)C(C)(C)[C@@H]5CC[C@]43C)[C@H]12 [Compound 2, 3β-Hydroxy-12-ursen-28-oic acid]
- Inhibition (inhibitory activity of compounds against HIV-1 protease) (HIV-1 protease): 85.07%
- inhibition at 17.9 µg/mL (HIV-1 protease): 85%

Compound: C[C@@H]1CC[C@]2(C(=O)O)CC[C@]3(C)C(=CC[C@@H]4[C@@]5(C)CC[C@@H](O)C(C)(C)[C@@H]5CC[C@]43C)[C@@H]2[C@]1(C)O [Compound 3, 3α,19α-Dihydroxy-12-ursen-28-oic acid]
- Inhibition (inhibitory activity of compounds against HIV-1 protease) (HIV-1 protease): 42.18%
- inhibition at 17.9 µg/mL (HIV-1 protease): 42%

Compound: CC1(C)CC[C@]2(C(=O)O)CC[C@]3(C)C(=CC[C@@H]4[C@@]5(C)C[C@@H](O)[C@H](O)C(C)(C)[C@@H]5CC[C@]43C)[C@@H]2C1 [Compound 4, 2α,3β-Dihydroxy-12-oleanen-28-oic acid]
- anti-HIV-1 protease activity (in words) (HIV-1 protease): most active
- inhibition at 17.9 µg/mL (HIV-1 protease): 100%

Compound: C[C@@H]1CC[C@]2(C(=O)O)CC[C@]3(C)C(=CC[C@@H]4[C@@]5(C)C[C@@H](O)[C@@H](O)C(C)(C)[C@@H]5CC[C@]43C)[C@@H]2[C@]1(C)O [Compound 5, 2α,3α,19α-Trihydroxy-12-ursen-28-oic acid]
- anti-HIV-1 protease activity (in words) (HIV-1 protease): did not show activity

Compound: C[C@@H]1CC[C@]2(C(=O)O)CC[C@]3(C)C(=CC[C@@H]4[C@@]5(C)C[C@@H](O)[C@H](O)C(C)(C)[C@@H]5CC[C@]43C)[C@@H]2[C@]1(C)O [Compound 6, 2α,3β,19α-Trihydroxy-12-ursen-28-oic acid]
- Inhibition (inhibitory activity of compounds against HIV-1 protease) (HIV-1 protease): 49.47%
- inhibition at 17.9 µg/mL (HIV-1 protease): 49%

Compound: COc1ccc(-c2cc(=O)c3c(O)cc(O[C@@H]4O[C@H](CO)[C@H](O)[C@H](O)[C@H]4O)cc3o2)cc1 [acacetin-7-O-β-D-galactopyranoside]
- EC50 (HIV [2]): 8 µM
- IC50 (HIV [2]): 37 µM
- anti-HIV activity (in words) (HIV [2]): significant anti-HIV activity
- therapeutic index (HIV [2]): 5

Compound: COc1c(O)cc2c(c1O)[C@@H]1O[C@H](CO)[C@@H](O)[C@H](O)[C@H]1OC2=O [bergenin]
- anti-HIV activity (in words) (HIV [3]; in vitro): moderate anti-HIV activity

Compound: C=C(C)[C@@H]1CC[C@]2(C(=O)O)CC[C@]3(C)[C@H](CC[C@@H]4[C@@]5(C)CC[C@H](O)C(C)(C)[C@@H]5CC[C@]43C)[C@@H]12 [betulinic acid]
- inhibition of HIV replication (in words) (HIV [4]): potent inhibitors of HIV replication

Compound: CC(C)[C@@H]1CC[C@]2(C(=O)O)CC[C@]3(C)C(CCC4[C@@]5(C)CC[C@H](O)C(C)(C)C5CC[C@]43C)C12 (stereo partly shown) [dihydrobetulinic acid]
- inhibition of HIV replication (in words) (HIV [4]): potent inhibitors of HIV replication

Compound: O=Cc1cc(O)c(O)c(O)c1 [gallic aldehyde]
- anti-HSV activity (in words) (HSV): strong anti-HSV activity

Compound: CC1(C)[C@@H](O[C@H]2O[C@H](C(=O)O)[C@@H](O)[C@H](O)[C@H]2O[C@@H]2O[C@H](C(=O)O)[C@@H](O)[C@H](O)[C@H]2O)CC[C@]2(C)[C@H]3C(=O)C=C4[C@@H]5C[C@@](C)(C(=O)O)CC[C@]5(C)CC[C@@]4(C)[C@]3(C)CC[C@@H]12 [glycyrrhizin]
- concentration at which HIV-induced plaque formation was inhibited (HIV [5]): 0.6 mM
- IC50 (HIV [5]; read-out: 50% inhibitory dose, HIV-induced plaque formation): 150 µM
- concentration at which cytopathic effect of HIV was inhibited (HIV [6]): 0.3 mM
- inhibition of giant cell formation [7]: inhibited giant cell formation
- concentration at which HIV-specific antigen expression was inhibited [8]: 0.6 mM

Compound: O=C1O[C@@H]2[C@@H](O)[C@H](O)[C@@H](CO)O[C@H]2c2c1cc(O)c(O)c2O [norbergenin]
- selectivity index (HIV [3]; IC50/EC50 basis not stated): above 25
- EC50 (HIV [3]; in vitro anti-HIV): 20 µg/mL (≈ 63.6 µM)
- IC50 (HIV [3]; in vitro): over 500 μg/ml
- anti-HIV activity (in words) (HIV [3]; in vitro): moderate anti-HIV activity

Compound: CC(=O)[C@@H]1CC[C@]2(C(=O)O)CC[C@]3(C)[C@H](CC[C@@H]4[C@@]5(C)CC[C@H](O)C(C)(C)[C@@H]5CC[C@]43C)[C@@H]12 [platanic acid]
- inhibition of HIV replication (in words) (HIV [4]): potent inhibitors of HIV replication

Compound: geponin
- anti-HSV activity (in words) (HSV): strong anti-HSV activity
